Test results as given in ChEMBL document CHEMBL3797055, “Glabridin-chalcone hybrid molecules: drug resistance reversal agent against clinical isolates of methicillin-resistant Staphylococcus aureus” (Medchemcomm, 2016).
In brackets after ≈: the same amount, converted by molar mass.

Tests used:
Format in all cases: functional
[1] = system: Staphylococcus aureus; experiment: Potentiation of norfloxacin-induced antibacterial activity against clinical isolates of methicillin-resistant Staphylococcus aureus P4629 assessed as reduction in norfloxacin MIC by checkerboard assay relative to control
[2] = system: Staphylococcus aureus; experiment: Bactericidal activity against clinical isolates of methicillin-resistant Staphylococcus aureus ST2071 assessed as reduction in viability at 0.5 MIC after 24 hrs by time kill kinetic analysis relative to control
[3] = system: Staphylococcus aureus; experiment: Potentiation of norfloxacin-induced antibacterial activity against clinical isolates of methicillin-resistant Staphylococcus aureus P4650 assessed as reduction in norfloxacin MIC by checkerboard assay relative to control
[4] = system: Staphylococcus aureus; experiment: Potentiation of norfloxacin-induced antibacterial activity against clinical isolates of methicillin-resistant Staphylococcus aureus ST10342 assessed as reduction in norfloxacin MIC by checkerboard assay relative to control
[5] = system: Staphylococcus aureus; experiment: Antibacterial activity against clinical isolates of methicillin-resistant Staphylococcus aureus ST2071 by checkerboard assay in presence of norfloxacin
[6] = system: Staphylococcus aureus; experiment: Antibacterial activity against clinical isolates of methicillin-resistant Staphylococcus aureus ST2071 by broth microdilution assay
[7] = system: Staphylococcus aureus; experiment: Ratio of MIC for clinical isolates of methicillin-resistant Staphylococcus aureus ST10760 to MIC for clinical isolates of methicillin-resistant Staphylococcus aureus ST10760 in presence of norfloxacin
[8] = system: Staphylococcus aureus; experiment: Bactericidal activity against clinical isolates of methicillin-resistant Staphylococcus aureus ST2071 assessed as reduction in viability at MIC after 24 hrs by time kill kinetic analysis relative to control
[9] = system: Staphylococcus aureus; experiment: Ratio of MIC for clinical isolates of methicillin-resistant Staphylococcus aureus P4423 to MIC for clinical isolates of methicillin-resistant Staphylococcus aureus P4423 in presence of norfloxacin
[10] = system: Staphylococcus aureus; experiment: Bactericidal activity against clinical isolates of methicillin-resistant Staphylococcus aureus ST2071 assessed as reduction in viability at 0.5 MIC after 24 hrs by time kill kinetic analysis in presence of norfloxacin relative to control
[11] = system: Staphylococcus aureus; experiment: Antibacterial activity against clinical isolates of methicillin-resistant Staphylococcus aureus P4629 by broth microdilution assay
[12] = system: Staphylococcus aureus; experiment: Antibacterial activity against clinical isolates of methicillin-resistant Staphylococcus aureus P4650 by broth microdilution assay
[13] = system: Staphylococcus aureus; experiment: Antibacterial activity against clinical isolates of methicillin-resistant Staphylococcus aureus P4650 by checkerboard assay in presence of norfloxacin
[14] = system: Staphylococcus aureus; experiment: Potentiation of norfloxacin-induced antibacterial activity against clinical isolates of methicillin-resistant Staphylococcus aureus ST2071 assessed as reduction in norfloxacin MIC by checkerboard assay relative to control
[15] = system: Staphylococcus aureus; experiment: Ratio of MIC for clinical isolates of methicillin-resistant Staphylococcus aureus P4629 to MIC for clinical isolates of methicillin-resistant Staphylococcus aureus P4629 in presence of norfloxacin
[16] = system: Staphylococcus aureus; experiment: Antibacterial activity against clinical isolates of methicillin-resistant Staphylococcus aureus ST10342 by broth microdilution assay
[17] = system: Staphylococcus aureus; experiment: Potentiation of norfloxacin-induced antibacterial activity against clinical isolates of methicillin-resistant Staphylococcus aureus P4650 assessed as norfloxacin MIC by checkerboard assay
[18] = system: Staphylococcus aureus; experiment: Potentiation of norfloxacin-induced antibacterial activity against clinical isolates of methicillin-resistant Staphylococcus aureus ST10760 assessed as reduction in norfloxacin MIC by checkerboard assay relative to control
[19] = system: Staphylococcus aureus; experiment: Potentiation of norfloxacin-induced antibacterial activity against clinical isolates of methicillin-resistant Staphylococcus aureus ST2071 assessed as norfloxacin MIC by checkerboard assay
[20] = system: Staphylococcus aureus; experiment: Antibacterial activity against clinical isolates of methicillin-resistant Staphylococcus aureus P4423 by broth microdilution assay
[21] = system: Staphylococcus aureus; experiment: Potentiation of norfloxacin-induced antibacterial activity against clinical isolates of methicillin-resistant Staphylococcus aureus ST10760 assessed as norfloxacin MIC by checkerboard assay
[22] = system: Staphylococcus aureus; experiment: Potentiation of norfloxacin-induced antibacterial activity against clinical isolates of methicillin-resistant Staphylococcus aureus ST10342 assessed as norfloxacin MIC by checkerboard assay
[23] = system: Staphylococcus aureus; experiment: Antibacterial activity against clinical isolates of methicillin-resistant Staphylococcus aureus P4629 by checkerboard assay in presence of norfloxacin
[24] = system: Staphylococcus aureus; experiment: Antibacterial activity against clinical isolates of methicillin-resistant Staphylococcus aureus ST10760 by broth microdilution assay
[25] = system: Staphylococcus aureus; experiment: Potentiation of norfloxacin-induced antibacterial activity against clinical isolates of methicillin-resistant Staphylococcus aureus P4423 assessed as reduction in norfloxacin MIC by checkerboard assay relative to control
[26] = system: Staphylococcus aureus; experiment: Potentiation of norfloxacin-induced antibacterial activity against clinical isolates of methicillin-resistant Staphylococcus aureus P4423 assessed as norfloxacin MIC by checkerboard assay
[27] = system: Staphylococcus aureus; experiment: Antibacterial activity against clinical isolates of methicillin-resistant Staphylococcus aureus ST10760 by checkerboard assay in presence of norfloxacin
[28] = system: Staphylococcus aureus; experiment: Ratio of MIC for clinical isolates of methicillin-resistant Staphylococcus aureus ST10342 to MIC for clinical isolates of methicillin-resistant Staphylococcus aureus ST10342 in presence of norfloxacin
[29] = system: Staphylococcus aureus; experiment: Potentiation of norfloxacin-induced antibacterial activity against clinical isolates of methicillin-resistant Staphylococcus aureus P4629 assessed as norfloxacin MIC by checkerboard assay
[30] = system: Staphylococcus aureus; experiment: Antibacterial activity against Staphylococcus aureus MTCC 96 by broth microdilution assay
[31] = system: Staphylococcus aureus; experiment: Ratio of MIC for clinical isolates of methicillin-resistant Staphylococcus aureus ST2071 to MIC for clinical isolates of methicillin-resistant Staphylococcus aureus ST2071 in presence of norfloxacin
[32] = system: Staphylococcus aureus; experiment: Ratio of MIC for clinical isolates of methicillin-resistant Staphylococcus aureus P4650 to MIC for clinical isolates of methicillin-resistant Staphylococcus aureus P4650 in presence of norfloxacin
[33] = system: Staphylococcus aureus; experiment: Antibacterial activity against clinical isolates of methicillin-resistant Staphylococcus aureus ST10342 by checkerboard assay in presence of norfloxacin
[34] = system: Staphylococcus aureus; experiment: Antibacterial activity against clinical isolates of methicillin-resistant Staphylococcus aureus P4423 by checkerboard assay in presence of norfloxacin

| Compound | fold change (FC) [1] | fold change (FC) [2] | fold change (FC) [3] | fold change (FC) [4] | fractional inhibitory concentration index (FICI) [5] | MIC [6] [µg/mL] | fold change (FC) [8] | fold change (FC) [10] | MIC [11] [µg/mL] | MIC [12] [µg/mL] | fractional inhibitory concentration index (FICI) [13] | fold change (FC) [14] | Ratio [15] | MIC [16] [µg/mL] | MIC [17] [µg/mL] | fold change (FC) [18] | MIC [19] [µg/mL] | MIC [20] [µg/mL] | MIC [21] [µg/mL] | MIC [22] [µg/mL] | further results |
| --- | --- | --- | --- | --- | --- | --- | --- | --- | --- | --- | --- | --- | --- | --- | --- | --- | --- | --- | --- | --- | --- |
| COc1ccc([C@@H]2COc3c(cc(/C=C/C(=O)c4ccco4)c4c3C=CC(C)(C)O4)C2)c(OC)c1 | 4 | <=1.52 | 4 | 8 | 0.375 | 25 (≈ 52.9 µM) | 2 | <=3 | 12.5 (≈ 26.5 µM) | 12.5 (≈ 26.5 µM) | 0.625 | 8 | 4 | 12.5 (≈ 26.5 µM) | 62.5 | 8 | 62.5 | 12.5 (≈ 26.5 µM) | 62.5 | 31.2 | Ratio [7]: 4; Ratio [9]: 4; fractional inhibitory concentration index (FICI) [23]: 0.625; MIC [24]: 25 µg/mL (≈ 52.9 µM); fold change (FC) [25]: 8; MIC [26]: 31.2 µg/mL; fractional inhibitory concentration index (FICI) [27]: 0.375; Ratio [28]: 4; MIC [29]: 125 µg/mL; MIC [30]: 12.5 µg/mL (≈ 26.5 µM); Ratio [31]: 4; Ratio [32]: 4; fractional inhibitory concentration index (FICI) [33]: 0.5; fractional inhibitory concentration index (FICI) [34]: 0.5 |
| COc1ccc([C@@H]2COc3c(cc(/C=C/C(=O)c4ccc(OC)c(OC)c4)c4c3C=CC(C)(C)O4)C2)c(OC)c1 | 8 | <=1.52 | 4 | 8 | 0.5 | 50 (≈ 92.1 µM) | 2 | <=4 | 50 (≈ 92.1 µM) | 50 (≈ 92.1 µM) | 0.5 | 4 | <=4 | 50 (≈ 92.1 µM) | 62.5 | 4 | 125 | 50 (≈ 92.1 µM) | 125 | 31.2 | fractional inhibitory concentration index (FICI) [23]: 0.375; MIC [24]: 50 µg/mL (≈ 92.1 µM); fold change (FC) [25]: 4; MIC [26]: 62.5 µg/mL; fractional inhibitory concentration index (FICI) [27]: 0.75; Ratio [28]: <=4; MIC [29]: 62.5 µg/mL; MIC [30]: 25 µg/mL (≈ 46.1 µM); Ratio [31]: <=4; Ratio [32]: <=4; fractional inhibitory concentration index (FICI) [33]: 0.375; fractional inhibitory concentration index (FICI) [34]: 0.75 |
